Measured values taken from PubChem BioAssay (NCI).
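Five concentrations, 48 hours, 96-well plates. The concentration for full growth arrest is given as TGI.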

The molecules below were run on MOLT-4 leukemia (assay: DTP human tumour cell line panel, 48 h).

Going from `O=[N+]([O-])c1ccc(S(=O)(=O)n2c3ccc(Br)cc3c3nc4ccccc4nc32)cc1` to `CCOC(=O)c1ccc(NCc2ccc3oc(=O)c(-c4ccccc4)nc3c2)cc1`, the TGI falls from greater than 100 µM to 60.4 µM.

`COc1cc(-c2nc3ccccn3c2/N=C/c2cc(Br)cc(Br)c2O)ccc1O` and `C[N+]1(C)CCc2cc(O)c(O)cc2C1Cc1ccc(O)c(O)c1` (stereo unspecified) are within 1.5-fold of each other in TGI: 73.7 µM for the first, 68.8 µM for the second.

`COC(=O)Nc1nc2ccc(S(=O)(=O)SC)cc2[nH]1` and `CCN(CC)CCSc1c2cc(OC)ccc2nc2ccc(OC)cc12` cannot be ordered by TGI: greater than 100 µM for the first, greater than 21.8 µM for the second.

`CO/C=C(/C(=O)OC)c1ccccc1COc1cccc(C(F)(F)F)c1` and `C1=Cc2cc3c(c4nccc(c24)N1)OCO3` cannot be ordered by TGI: greater than 100 µM for the first, greater than 46.8 µM for the second.

`CC(C)=CCC(O)[C@](C)(O)[C@H]1[C@H](O)C[C@@]2(C)[C@@H]3CCc4cc(O)c(OC5OC(CO)C(O)C(O)C5O)cc4C3(C)C(=O)C[C@]12C` (stereo partly specified) and `O=C1NC2O[C@H](CNC(=O)c3cc(Br)c[nH]3)CC2(O)N1` (mixture of isomers) cannot be ordered by TGI: greater than 100 µM for the first, greater than 100 µM for the second.

What follows are molecules tested on K-562 leukemia (assay: DTP human tumour cell line panel, 48 h).

Going from `C(/C=C/Nc1ccc(Oc2ccccc2)cc1)=Nc1ccc(Oc2ccccc2)cc1` to `O=C(/C=C/c1ccc2ccccc2c1)NCc1ccc(C(=O)NCCc2ccccc2)cc1`, the TGI rises from 55.9 µM to greater than 100 µM.

Compared with `Nc1nc(-[n+]2ccc(-c3ccncc3)cc2)nc(Cl)c1Cl`, `N#Cc1c(-c2ccccc2)[nH]c2ccc(Cl)cc2c1=O` is higher in TGI: 91.7 µM for the first, greater than 100 µM for the second.

First: CC(C)OC(=O)/C=C/C(=O)O/C=C/[N+](=O)[O-]
Second: CC(=O)[C@@H](C)C(=O)N1C(=O)OC[C@@]12[C@@H]1CC[C@@H](C1)C2(C)C
The TGI of the first is lower: 66.8 µM for the first, greater than 100 µM for the second.

Compared with `C[C@@H](c1ccccc1)n1c(N)c(C#N)c2ccc([N+](=O)[O-])cc2c1=O`, `CC1(C)OC(=O)N(c2ccccc2)C12C=Cc1cc([N+](=O)[O-])ccc1O2` (stereo unspecified) is higher in TGI: 26.1 µM for the first, greater than 100 µM for the second.

`COC1=C(OC)C(=O)C(Cc2c(C)nc3sccn23)=C(C)C1=O` and `CCN(CC)CCSc1c2cc(OC)ccc2nc2ccc(OC)cc12` cannot be ordered by TGI: 39.8 µM for the first, greater than 22.6 µM for the second.

`CCOc1ncn(-c2ccc(NC(=S)NC3OC(CO)C(O)C(O)C3O)cc2)n1` (stereo unspecified) and `CC(C)=CCC(O)[C@](C)(O)[C@H]1[C@H](O)C[C@@]2(C)[C@@H]3CCc4cc(O)c(OC5OC(CO)C(O)C(O)C5O)cc4C3(C)C(=O)C[C@]12C` (stereo partly specified) cannot be ordered by TGI: greater than 100 µM for the first, greater than 100 µM for the second.

`CC1(C)/C(=C/N=O)N(O)C(C)(C)N1O` and `COC(=O)Nc1nc2ccc(S(=O)(=O)SC)cc2[nH]1` cannot be ordered by TGI: greater than 100 µM for the first, greater than 100 µM for the second.

Going from `COC(=O)c1cc2c(cc1Cl)Sc1nnc(Nc3ccc(C)cc3)n1S2(=O)=O` to `CCOC(=O)c1ccc(NCc2ccc3oc(=O)c(-c4ccccc4)nc3c2)cc1`, the TGI rises from 33.4 µM to 85.8 µM (2.6-fold).

`N#C[C@@H](c1ccccn1)c1ncccc1[N+](=O)[O-]` and `N#Cc1[nH]c(=O)n(-c2ccccc2)c1N` cannot be ordered by TGI: greater than 100 µM for the first, greater than 10 µM for the second.

Compared with `COC(=O)C1=CS/C(=C2\S[C@@H]3[C@H](S2)[C@H]2C=C[C@@H]3C2)S1`, `O=C1NC2O[C@H](CNC(=O)c3cc(Br)c[nH]3)CC2(O)N1` (mixture of isomers) is higher in TGI: 18.5 µM for the first, greater than 100 µM for the second.

`CC(=O)Oc1ccc2cc(-c3ccccc3OC(C)=O)c(=O)oc2c1` and `CO/C=C(/C(=O)OC)c1ccccc1COc1cccc(C(F)(F)F)c1` cannot be ordered by TGI: greater than 100 µM for the first, greater than 100 µM for the second.

`O=[N+]([O-])c1ccc(S(=O)(=O)n2c3ccc(Br)cc3c3nc4ccccc4nc32)cc1` and `COc1cc(-c2nc3ccccn3c2/N=C/c2cc(Br)cc(Br)c2O)ccc1O` cannot be ordered by TGI: greater than 100 µM for the first, greater than 100 µM for the second.

Going from `C1=Cc2cc3c(c4nccc(c24)N1)OCO3` to `C[N+]1(C)CCc2cc(O)c(O)cc2C1Cc1ccc(O)c(O)c1` (stereo unspecified), the TGI rises from 98.9 µM to greater than 100 µM.

What follows are molecules tested on SF-539 CNS (assay: DTP human tumour cell line panel, 48 h).

First: C(/C=C/Nc1ccc(Oc2ccccc2)cc1)=Nc1ccc(Oc2ccccc2)cc1
Second: CCOC(=O)c1ccc(NCc2ccc3oc(=O)c(-c4ccccc4)nc3c2)cc1
The TGI of the first is lower: 32.9 µM for the first, greater than 100 µM for the second.

Going from `Nc1nc(-[n+]2ccc(-c3ccncc3)cc2)nc(Cl)c1Cl` to `N#Cc1c(-c2ccccc2)[nH]c2ccc(Cl)cc2c1=O`, the TGI rises from 68.1 µM to greater than 100 µM.

`CC(C)OC(=O)/C=C/C(=O)O/C=C/[N+](=O)[O-]` and `CC(=O)[C@@H](C)C(=O)N1C(=O)OC[C@@]12[C@@H]1CC[C@@H](C1)C2(C)C` cannot be ordered by TGI: greater than 100 µM for the first, greater than 100 µM for the second.

Compared with `COC1=C(OC)C(=O)C(Cc2c(C)nc3sccn23)=C(C)C1=O`, `CCN(CC)CCSc1c2cc(OC)ccc2nc2ccc(OC)cc12` is higher in TGI: 31.2 µM for the first, greater than 100 µM for the second.

`CCOc1ncn(-c2ccc(NC(=S)NC3OC(CO)C(O)C(O)C3O)cc2)n1` (stereo unspecified) and `CC(C)=CCC(O)[C@](C)(O)[C@H]1[C@H](O)C[C@@]2(C)[C@@H]3CCc4cc(O)c(OC5OC(CO)C(O)C(O)C5O)cc4C3(C)C(=O)C[C@]12C` (stereo partly specified) cannot be ordered by TGI: greater than 100 µM for the first, greater than 100 µM for the second.

Going from `CC1(C)/C(=C/N=O)N(O)C(C)(C)N1O` to `COC(=O)Nc1nc2ccc(S(=O)(=O)SC)cc2[nH]1`, the TGI falls from greater than 100 µM to 39.3 µM.

Going from `COC(=O)c1cc2c(cc1Cl)Sc1nnc(Nc3ccc(C)cc3)n1S2(=O)=O` to `CC(=O)Oc1ccc2cc(-c3ccccc3OC(C)=O)c(=O)oc2c1`, the TGI rises from 2.92 µM to greater than 100 µM.

`N#Cc1[nH]c(=O)n(-c2ccccc2)c1N` and `CO/C=C(/C(=O)OC)c1ccccc1COc1cccc(C(F)(F)F)c1` cannot be ordered by TGI: greater than 10 µM for the first, greater than 100 µM for the second.

First: COC(=O)C1=CS/C(=C2\S[C@@H]3[C@H](S2)[C@H]2C=C[C@@H]3C2)S1
Second: O=C1NC2O[C@H](CNC(=O)c3cc(Br)c[nH]3)CC2(O)N1 (mixture of isomers)
The TGI of the first is lower: 32.5 µM for the first, greater than 100 µM for the second.

First: COc1cc(-c2nc3ccccn3c2/N=C/c2cc(Br)cc(Br)c2O)ccc1O
Second: C[N+]1(C)CCc2cc(O)c(O)cc2C1Cc1ccc(O)c(O)c1 (stereo unspecified)
The TGI of the first is lower: 90.2 µM for the first, greater than 100 µM for the second.
